In PubChem BioAssay AID248 (DTP/NCI, 2004):
Several values for one entry are separate records, joined by “and”; a condition that tells them apart may be missing. Identical values can stand only once. Toxic doses and inconclusive results are not listed. Cut-off read from the data, not from the text of the source: active = T/C of 150% or more; inactive = T/C below 125%. Peptide text beside a SMILES is read from it.

System: L1210 leukemia ip in BDF1 mice, survival T/C
Experiment: NCI In Vivo Anticancer Drug Screen. Data for tumor model L1210 Leukemia (intraperitoneal) in B6D2F1 (BDF1) mice
Details: endpoint: mean survival time, higher = longer survival
Method in brief: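 Transplantable tumor model; survival measured in treated vs vehicle control mice. Value = treated/control.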

[1] = dose: 100.0 mg/kg/injection, schedule: Q01DX009 (ip), vehicle: saline with Tween-80
[2] = dose: 100.0 mg/kg/injection, schedule: Q04DX003 (ip), vehicle: saline with Tween-80
[3] = dose: 200.0 mg/kg/injection, schedule: Q01DX009 (ip), vehicle: saline with Tween-80
[4] = dose: 200.0 mg/kg/injection, schedule: Q04DX003 (ip), vehicle: saline with Tween-80
[5] = dose: 100.0 mg/kg/injection, schedule: Q01DX001 (ip), vehicle: saline
[6] = dose: 100.0 mg/kg/injection, schedule: Q01DX009 (ip), vehicle: saline
[7] = dose: 200.0 mg/kg/injection, schedule: Q01DX001 (ip), vehicle: saline
[8] = dose: 200.0 mg/kg/injection, schedule: Q01DX009 (ip), vehicle: saline
[9] = dose: 400.0 mg/kg/injection, schedule: Q01DX001 (ip), vehicle: saline
[10] = dose: 400.0 mg/kg/injection, schedule: Q01DX009 (ip), vehicle: saline
[11] = dose: 50.0 mg/kg/injection, schedule: Q01DX009 (ip), vehicle: saline with Tween-80
[12] = dose: 100.0 mg/kg/injection, schedule: Q01DX001 (ip), vehicle: Klucel (hydroxypropylcellulose) (HPC)
[13] = dose: 200.0 mg/kg/injection, schedule: Q01DX001 (ip), vehicle: Klucel (hydroxypropylcellulose) (HPC)
[14] = dose: 400.0 mg/kg/injection, schedule: Q01DX001 (ip), vehicle: Klucel (hydroxypropylcellulose) (HPC)
[15] = dose: 100.0 mg/kg/injection, schedule: Q01DX009 (ip), vehicle: Klucel (hydroxypropylcellulose) (HPC)
[16] = dose: 100.0 mg/kg/injection, schedule: Q04DX003 (ip), vehicle: Klucel (hydroxypropylcellulose) (HPC)
[17] = dose: 200.0 mg/kg/injection, schedule: Q01DX009 (ip), vehicle: Klucel (hydroxypropylcellulose) (HPC)
[18] = dose: 200.0 mg/kg/injection, schedule: Q04DX003 (ip), vehicle: Klucel (hydroxypropylcellulose) (HPC)
[19] = dose: 400.0 mg/kg/injection, schedule: Q01DX009 (ip), vehicle: Klucel (hydroxypropylcellulose) (HPC)
[20] = dose: 400.0 mg/kg/injection, schedule: Q04DX003 (ip), vehicle: Klucel (hydroxypropylcellulose) (HPC)
[21] = dose: 100.0 mg/kg/injection, schedule: Q01DX001 (ip), vehicle: carboxymethylcellulose (CMC)
[22] = dose: 200.0 mg/kg/injection, schedule: Q01DX001 (ip), vehicle: carboxymethylcellulose (CMC)

Measured: T/C

N#Cc1cn(C2OC(CO)C(O)C2O)c2nc(Cl)nc(N)c12 (stereo not drawn)
inactive: dose: 7.5 mg/kg/injection, schedule: Q01DX005 (ip), vehicle: saline 114 % of control | dose: 12.5 mg/kg/injection, schedule: Q01DX005 (ip), vehicle: saline 119 % of control | dose: 12.5 mg/kg/injection, schedule: Q01DX009 (ip), vehicle: saline 117 % of control | dose: 21.0 mg/kg/injection, schedule: Q01DX005 (ip), vehicle: saline 108 % of control | dose: 25.0 mg/kg/injection, schedule: Q01DX005 (ip), vehicle: saline 118 % of control | dose: 25.0 mg/kg/injection, schedule: Q01DX009 (ip), vehicle: saline 98 % of control

CCCC(C(=O)O)c1ccccc1C (stereo not drawn)
inactive: [1] 102 % of control | [2] 102 % of control | [3] 98 % of control | [4] 97 % of control | dose: 400.0 mg/kg/injection, schedule: Q01DX009 (ip), vehicle: saline with Tween-80 105 % of control | dose: 400.0 mg/kg/injection, schedule: Q04DX003 (ip), vehicle: saline with Tween-80 107 % of control

O=S(=O)(O)CCBr
inactive: dose: 50.0 mg/kg/injection, schedule: Q01DX001 (ip), vehicle: saline 108 % of control | [5] 96 % of control and 104 % of control | [6] 97 % of control | [7] 101 % of control and 108 % of control | [8] 96 % of control | [9] 104 % of control and 106 % of control | [10] 108 % of control

CCOC(=O)NCCCCCCNC(=O)OCC
inactive: [11] 97 % of control | [1] 95 % of control | [3] 95 % of control

C=C(C)CNC(N)=S
inactive: dose: 75.0 mg/kg/injection, schedule: Q04DX003 (ip), vehicle: Klucel (hydroxypropylcellulose) (HPC) 98 % of control | [12] 105 % of control | dose: 150.0 mg/kg/injection, schedule: Q04DX003 (ip), vehicle: Klucel (hydroxypropylcellulose) (HPC) 89 % of control | [13] 98 % of control | dose: 300.0 mg/kg/injection, schedule: Q04DX003 (ip), vehicle: Klucel (hydroxypropylcellulose) (HPC) 110 % of control | [14] 105 % of control

COc1ccc2c(c1)-c1c(ccc(OC)c1O)CC(c1ccccc1)[N+](C)(C)CC2 (stereo not drawn)
inactive: dose: 6.25 mg/kg/injection, schedule: Q01DX001 (ip), vehicle: saline 96 % of control | dose: 12.5 mg/kg/injection, schedule: Q01DX001 (ip), vehicle: saline 96 % of control | dose: 25.0 mg/kg/injection, schedule: Q01DX001 (ip), vehicle: saline 107 % of control

CC(=O)OC12CCCC(=O)C1C1CC/C=C\CCC12 (stereo not drawn)
inactive: [12] 111 % of control | [15] 98 % of control | [16] 95 % of control | [13] 108 % of control | [17] 98 % of control | [18] 98 % of control | [14] 102 % of control | [19] 96 % of control | [20] 95 % of control

CC(C)OC(=O)c1ccc(N)cc1S(N)(=O)=O
inactive: dose: 100.0 mg/kg/injection, schedule: Q01DX001 (ip), vehicle: other 106 % of control

c1ccc(-c2nc(-c3ccccc3)nc(-c3ccccc3)n2)cc1
inactive: [16] 98 % of control | [18] 94 % of control | [20] 94 % of control

FC(F)(F)c1nc2nc(Br)c(Br)nc2[nH]1
inactive: [11] 108 % of control | [1] 89 % of control | [2] 109 % of control and 110 % of control and 111 % of control | [3] 98 % of control | [4] 102 % of control and 115 % of control

O=[N+]([O-])c1ccc2c(c1)Cc1c-2cc(I)c(O)c1I
inactive: [21] 96 % of control | [22] 98 % of control | dose: 400.0 mg/kg/injection, schedule: Q01DX001 (ip), vehicle: carboxymethylcellulose (CMC) 98 % of control

CC1CCCC(C)N1 (stereo not drawn)
inactive: dose: 50.0 mg/kg/injection, schedule: Q01DX009 (ip), vehicle: saline 94 % of control | [6] 96 % of control and 100 % of control | dose: 100.0 mg/kg/injection, schedule: Q04DX003 (ip), vehicle: saline 110 % of control and 102 % of control | [8] 94 % of control and 106 % of control | dose: 200.0 mg/kg/injection, schedule: Q04DX003 (ip), vehicle: saline 102 % of control and 94 % of control | [10] 95 % of control | dose: 400.0 mg/kg/injection, schedule: Q04DX003 (ip), vehicle: saline 87 % of control

[O-][n+]1ccccc1Cc1ccccc1
inactive: [11] 90 % of control | [1] 90 % of control | dose: 100.0 mg/kg/injection, schedule: Q04DX002 (ip), vehicle: saline with Tween-80 97 % of control | [3] 90 % of control | dose: 200.0 mg/kg/injection, schedule: Q04DX002 (ip), vehicle: saline with Tween-80 101 % of control | dose: 400.0 mg/kg/injection, schedule: Q04DX002 (ip), vehicle: saline with Tween-80 101 % of control

C[CH2][Ge]([CH2]C)([CH2]C)[CH2]C#N
inactive: dose: 5.0 mg/kg/injection, schedule: Q04DX002 (ip), vehicle: saline with Tween-80 100 % of control | dose: 10.0 mg/kg/injection, schedule: Q04DX002 (ip), vehicle: saline with Tween-80 103 % of control | dose: 20.0 mg/kg/injection, schedule: Q04DX002 (ip), vehicle: saline with Tween-80 100 % of control

CC(C)C(NC(=O)C(CCC(=O)O)NC(=O)C(N)Cc1ccc(O)cc1)C(=O)NCC(=O)NC(Cc1ccc(O)cc1)C(=O)NC(CCC(=O)O)C(=O)NC(C(=O)NCC(=O)NCC(=O)O)C(C)C (stereo not drawn) (H-YEVGYEVGG-OH; configuration not given here)
inactive: dose: 50.0 mg/kg/injection, schedule: Q01DX001 (ip), vehicle: carboxymethylcellulose (CMC) 91 % of control | [21] 96 % of control | [22] 91 % of control

CC(CN1CCN(CCOCCO)CC1)CN1c2ccccc2Sc2ccc(Cl)cc21 (stereo not drawn)
inactive: dose: 0.09 mg/kg/injection, schedule: Q01DX009 (ip), vehicle: saline 114 % of control | dose: 0.39 mg/kg/injection, schedule: Q01DX009 (ip), vehicle: saline 94 % of control | dose: 0.78 mg/kg/injection, schedule: Q01DX009 (ip), vehicle: saline 96 % of control | dose: 0.78 mg/kg/injection, schedule: Q04DX003 (ip), vehicle: saline 108 % of control | dose: 1.56 mg/kg/injection, schedule: Q01DX009 (ip), vehicle: saline 114 % of control | dose: 1.56 mg/kg/injection, schedule: Q04DX003 (ip), vehicle: saline 110 % of control | dose: 3.12 mg/kg/injection, schedule: Q04DX003 (ip), vehicle: saline 106 % of control | dose: 6.25 mg/kg/injection, schedule: Q04DX003 (ip), vehicle: saline 105 % of control | dose: 12.5 mg/kg/injection, schedule: Q04DX003 (ip), vehicle: saline 111 % of control

O=C(NO)c1cnccn1
inactive: dose: 296.0 mg/kg/injection, schedule: Q01DX015 (ip), vehicle: water 92 % of control | dose: 666.0 mg/kg/injection, schedule: Q01DX015 (ip), vehicle: water 118 % of control | dose: 1000.0 mg/kg/injection, schedule: Q01DX015 (ip), vehicle: water 120 % of control

CNC(=O)Oc1ccc(C(=O)OCCO)cc1
inactive: [5] 90 % of control | [7] 88 % of control | [9] 88 % of control

O=C(NC1CCC(CC2CCCCC2)CC1)C(Cl)Cl (stereo not drawn)
inactive: [15] 91 % of control | [16] 93 % of control | [17] 93 % of control | [18] 88 % of control | [19] 91 % of control | [20] 109 % of control

O=[N+]([O-])c1ccc(O)c(C=NCC2CCCC[N-]2)c1.O=[N+]([O-])c1ccc(O)c(C=NCC2CCCC[N-]2)c1.[Ni+2] (stereo not drawn)
inactive: [2] 90 % of control | [4] 90 % of control

CC(C)(C)NC(=O)CCC1C(NC(=O)C(C)(C)C)C2(Cl)C(Cl)=C(Cl)C1(Cl)C2(Cl)Cl (stereo not drawn)
inactive: [15] 90 % of control | [16] 92 % of control | [17] 90 % of control | [18] 92 % of control | [19] 90 % of control | [20] 93 % of control

Nc1nnc(SCc2ccccc2)s1
inactive: [15] 92 % of control | [17] 105 % of control | [19] 97 % of control

O=C(c1ccccc1)C1CCCS1(=O)=O (stereo not drawn)
inactive: [16] 100 % of control | [17] 98 % of control | [18] 96 % of control | [19] 97 % of control | [20] 100 % of control
